Test results from publication PMC12519464, “Dual-Site Inhibition of SARS-CoV‑2 RNA-Dependent RNA Polymerase by Small Molecules Able to Block Viral Replication Identified through a Computer-Aided Drug Discovery Approach” (ACS Infectious Diseases, 2025).

Each compound was assayed against SARS-CoV-2 nsp12/7/8 (RTC) complex (Severe acute respiratory syndrome coronavirus 2, UniProt P0DTD1) (assay: biochemical). Details: not given.
Format: biochemical
Compound `CC1(C)CC[C@]2(C(=O)O[C@@H]3O[C@H](CO)[C@@H](O)[C@H](O)[C@H]3O)CC[C@]3(C)C(=CC[C@@H]4[C@@]5(C)CC[C@H](O[C@@H]6O[C@H](C(=O)O)[C@@H](O)[C@H](O)[C@H]6O[C@@H]6OC[C@@H](O)[C@H](O)[C@H]6O)C(C)(C)[C@@H]5CC[C@]43C)[C@@H]2C1` [Pseudoginsenoside Rt1] has an IC50 of 49.3 ± 5.86 µM. Work on `CC1(C)CC[C@]2(C(=O)O)[C@H](O)C[C@]3(C)C(=CC[C@@H]4[C@@]5(C)CC[C@H](O)[C@@](C)(C=O)[C@@H]5CC[C@]43C)[C@@H]2C1` [Quillaic acid] yielded an IC50 of 83.9 ± 9.31 µM. `CN(C(=O)c1ccc(F)cc1C(F)(F)F)C1CCN(c2nnc(-c3ccnn3C)c3ccccc23)CC1` [Taladegib, reference compound] was tested, and the IC50 was > 100 µM.

Same assay, conditions: primer-extension PAGE assay, 150 nM RTC, 5% DMSO, 30 min preincubation at 37 °C; mean and SD of at least 3 independent experiments
With `CO[C@H]1/C=C/O[C@@]2(C)Oc3c(C)c(O)c4c(O)c(c5c(nc6cc(C)ccn65)c4c3C2=O)NC(=O)/C(C)=C\C=C\[C@H](C)[C@H](O)[C@@H](C)[C@@H](O)[C@@H](C)[C@H](OC(C)=O)[C@@H]1C` [Rifaximin, reference compound] the IC50 was > 100 µM. `C[C@@H]1CC[C@]2(C(=O)O)CC[C@]3(C)C(=CC[C@@H]4[C@@]5(C)CC[C@H](O)[C@@](C)(CO)[C@@H]5CC[C@]43C)[C@@H]2[C@]1(C)O` [Rotundic acid] was tested, and the IC50 was > 100 µM. `CNc1cccc(NC(=O)N[C@@H]2N=C(c3ccccn3)c3ccccc3N(CC(=O)C(C)(C)C)C2=O)c1` [Sograzepide, reference compound] was tested, and the IC50 was > 100 µM. With `C=CC(=O)N1CCN(c2nc(=O)n(-c3c(C)ccnc3C(C)C)c3nc(-c4c(O)cccc4F)c(F)cc23)[C@@H](C)C1` [Sotorasib, reference compound] the IC50 was 47 ± 10.6 µM.

Same assay, conditions: read-out: IC50: compound concentration required to inhibit by 50% the SARS-CoV-2 RTC enzymatic activity
`C[C@@H]1CC[C@@]2(OC1)O[C@H]1C[C@H]3[C@@H]4CC=C5C[C@@H](O[C@@H]6O[C@H](CO)[C@@H](O)[C@H](O)[C@H]6O[C@@H]6O[C@@H](C)[C@H](O)[C@@H](O)[C@H]6O)CC[C@]5(C)[C@H]4CC[C@]3(C)[C@H]1[C@@H]2C` [Prosapogenin A] was tested, and the IC50 was > 100 µM. With `CC(C)(O)[C@H]1CC[C@@](C)([C@H]2CC[C@]3(C)[C@@H]2[C@H](O)C[C@@H]2[C@@]4(C)CC[C@H](O)C(C)(C)[C@@H]4[C@@H](O[C@@H]4O[C@H](CO)[C@@H](O)[C@H](O)[C@H]4O)C[C@]23C)O1` [Pseudoginsenoside Rt5] the IC50 was > 100 µM. For `C=C(C)[C@@H]1CC[C@]2(C(=O)O)CC[C@]3(C)[C@H](CC[C@@H]4[C@@]5(C)CC[C@H](O[C@@H]6OC[C@H](O)[C@H](O)[C@H]6O[C@@H]6O[C@@H](C)[C@H](O)[C@@H](O)[C@H]6O)[C@@](C)(CO)[C@@H]5CC[C@]43C)[C@@H]12` [Pulchinenoside A], the IC50 was 24.7 ± 0.42 µM. For `COc1ccc2cc(S(=O)(=O)N[C@H](CC(=O)N[C@H](Cc3ccc(CN4[C@H](C)CCC[C@@H]4C)cc3)C(=O)N(C)C(C)C)c3ccc4c(c3)OCO4)ccc2c1` [SSR240612, reference compound], the IC50 was 85.9 ± 4.35 µM. In the case of `C[C@H]1O[C@@H](O[C@H]2CC[C@@]3(C)[C@@H](CC[C@]4(C)[C@@H]3C=CC3=C5CC(C)(C)CC[C@]5(CO)[C@H](O)C[C@]34C)[C@]2(C)CO)[C@H](O)[C@@H](O[C@@H]2O[C@H](CO)[C@@H](O)[C@H](O)[C@H]2O)[C@H]1O` [Saikosaponin B2], the IC50 is reported as 54.6 ± 13.6 µM. With `C[C@H]1O[C@@H](O[C@H]2CC[C@@]3(C)[C@@H](CC[C@]4(C)[C@@H]3C=C[C@]35OC[C@@]6(CCC(C)(C)C[C@H]63)[C@H](O)C[C@]54C)[C@]2(C)CO)[C@H](O)[C@@H](O[C@@H]2O[C@H](CO)[C@@H](O)[C@H](O)[C@H]2O)[C@H]1O` [Saikosaponin D] the IC50 was > 100 µM. In the case of `CC1(C)CC[C@]2(C(=O)O)CCC3=C([C@@H](CCl)C[C@@H]4[C@@]5(C)C[C@H](O)[C@H](O)[C@@](C)(C(=O)O)[C@@H]5CC[C@@]34C)[C@@H]2C1` [Senegenin], the IC50 is reported as > 100 µM. In the case of `C[C@@H]1CC[C@@]2(OC1)O[C@H]1C[C@H]3[C@@H]4CC[C@@H]5C[C@@H](O)CC[C@]5(C)[C@H]4CC[C@]3(C)[C@H]1[C@@H]2C` [Smilagenin, reference compound], the IC50 is reported as > 100 µM.
